# According to patent publication US20030103901A1, “ELISA kit for the determination of CYP2C19 metabolic phenotypes and uses thereof” (McGill University, priority 2001, published 2003):
# Marks after values point to notes of the source that are not given here.
# Assays:
# AAMU-Ab = assay: Competitive antigen ELISA, cross-reactivity of AAMU-Ab; type: binding, rabbit; conditions: for % Cross-Reaction AAMU-Ab: competitive antigen ELISA, 0 = absence of inhibition or inhibition no higher than 40% at highest concentration tested (5×10^−3 M)
# Description: (§1) Buffers and water without additives are filtered through millipore filters and kept for 1 week. BSA, antibodies, Tween™ 20 and horse radish peroxidase conjugates are added to these buffers and water just prior to use. Urine samples are usually collected 4 hours after drinking a cup of coffee (instant or brewed with approximately 100 mg of caffeine per cup) and stored at −80° C. The urine samples are diluted 10 times with sodium phosphate buffer (620 mosm, pH 7.50) and are subsequently diluted with water to give concentrations of AAMU and 1X no higher than 3×10^−6 M in the ELISA. All the pipettings are done with an eight-channel pipette, except those of the antibody and sample solutions. Starting with the last well, 100 μL of a carbonate buffer (100 mM, pH 9.6) containing 2.5 μg mL-^1 antibodies are added to each well. After 90 min. at room temperature, the wells are washed three times with […] of TPB: isotonic sodium phosphate buffer (310 mosm, pH 7.50) containing 0.05% Tween™ 20.
# (§2) After the initial wash, unoccupied sites are blocked by incubation for 90 min. at room temperature with 100 μL TBP containing 3% BSA. The wells are washed four times with 100 μL TPB. The washing is followed by additions of 50 μL of 12 mg mL^−1 AAMU-HRP or 1X-HRP conjugate in 2×TPB containing 2% BSA, and 50 μL of either water, standard (13 standards; AAMU or 1X, 2×10^−4 to 2×10^−8 M) or sample in duplicate. The microplate is gently shaken with an orbital shaker at room temperature for 3-4 hours. The wells are washed three times with 100 μL TPB containing 1% BSA and three times with water containing 0.05% Tween™ 20. To the washed plate is added 150 μL of a substrate buffer composed of citric acid (25 mM) and sodium phosphate dibasic buffer (50 mM, pH 5.0) containing 0.06% hydrogen peroxide and 0.04% o-phenylenediamine hydrochloride.
# (§3) Buffers and water without additives were filtered through millipore filters and kept for 1 week. BSA, antibodies, Tween™ 20 and horse radish peroxidase conjugates were added to these buffers and water just prior to use. Urine samples were usually collected 4 hours after drinking a cup of coffee (instant or brewed with approximately 100 mg of caffeine per cup) and stored at −80° C. They were diluted 10 times with sodium phosphate buffer (620 mosm, pH 7.50) and were subsequently diluted with water to give concentrations of AAMU and 1X no higher than 3×10^−6 M in the ELISA. All the pipettings were done with an eight-channel pipette, except those of the antibody and sample solutions. Starting with the last well, 100 μL of a carbonate buffer (100 mM, pH 9.6) containing 2.5 μg mL-^1 antibodies was pipetted. After 90 min. at room temperature, the wells were washed three times with 100 μL of TPB: isotonic sodium phosphate buffer (310 mosm, pH 7.50) containing 0.05% Tween™ 20.
# (§4) After the initial wash, unoccupied sites were blocked by incubation for 90 min. at room temperature with 100 μL TBP containing 3% BSA. The wells were washed four times with 100 μL TPB. This was followed by additions of 50 μL of 12 mg mL^−1 AAMU-HRP or 1X-HRP conjugate in 2×TPB containing 2% BSA, and 50 μL of either water, standard (13 standards; AAMU or 1X, 2×10^−4 to 2×10^−8 M) or sample in duplicate. The microplate was gently shaken with an orbital shaker at room temperature for 3-4 hours. The wells were washed three times with 100 μL with TPB containing 1% BSA and three times with water containing 0.05% Tween™ 20. To the washed plate was added 150 μL of a substrate buffer composed of citric acid (25 mM) and sodium phosphate dibasic buffer (50 mM, pH 5.0) containing 0.06% hydrogen peroxide and 0.04% o-phenylenediamine hydrochloride. After 20 min. at room temperature with shaking, the reaction was stopped with 50 μL of 2.5 N HCl.
# (§5) The cross reactivities of AAMU-Ab and 1X-Ab were tested using a wide variety of caffeine metabolites and structural analogs (Table 2 below).
# 1X-Ab = assay: Competitive antigen ELISA, cross-reactivity of 1X-Ab; type: binding, rabbit; conditions: for % Cross-Reaction 1X-Ab: competitive antigen ELISA, 0 = absence of inhibition or inhibition no higher than 40% at highest concentration tested (5×10^−3 M)
# Description: as §1, §2, §3, §4, §5
Structure (SMILES),% Cross-Reaction AAMU-Ab (AAMU-Ab),"IC50 (1X-Ab; 1X-Ab, 1X-HRP conjugate, read-out: concentration required for 50% inhibition in the competitive antigen ELISA)",% Cross-Reaction 1X-Ab (1X-Ab),"IC50 (AAMU-Ab; AAMU-Ab, AAMU-HRP conjugate, read-out: concentration required for 50% inhibition in the competitive antigen ELISA)"
"Cn1c(=O)[nH]c2nc[nH]c2c1=O [1-Methyl Xanthine (1X), 1-Methyl Xanthine]",0%,10 µM,100%,–
Cn1c(=O)[nH]c2[nH]c(=O)[nH]c2c1=O [1-Methyluric acid],0%,–,11%,–
Nc1nc2nc[nH]c2c(=O)[nH]1 [Guanine],0%,–,0%,–
O=c1[nH]cnc2nc[nH]c12 [Hypoxanthine],0%,–,0%,–
"Cn1c(=O)[nH]c2ncn(C)c2c1=O [1,7-Dimethyl Xanthine (Paraxanthine), 1,7-Dimethyl Xanthine]",0%,–,0.5%,–
CC(=O)Nc1c(N)[nH]c(=O)[nH]c1=O [5-Acetamino-6-amino-uracil],0.6%,–,0%,–
"Cn1c(=O)[nH]c2[nH]c(=O)n(C)c2c1=O [1,7-Dimethyluric acid]",0%,–,0%,–
Cn1cnc2[nH]c(=O)[nH]c(=O)c21 [7-Methyl Xanthine],0%,–,0%,–
"Cn1c(=O)c2[nH]cnc2n(C)c1=O [1,3-Dimethyl Xanthine (Theophylline), 1,3-Dimethyl Xanthine]",0%,–,0.2%,–
"Cn1cnc2c1c(=O)[nH]c(=O)n2C [3,7-Dimethyl Xanthine (Theobromine), 3,7-Dimethyl Xanthine]",0%,–,0%,–
CC(=O)Nc1c(N)n(C)c(=O)[nH]c1=O [5-Acetamino-6-amino-1-methyluracil],100%,–,0%,1.5 µM
O=c1[nH]c(=O)c2[nH]cnc2[nH]1 [Xanthine],0^a %,–,0%,–
Cc1nc2[nH]c(=O)[nH]c(=O)c2[nH]1 [8-Methyl Xanthine],0%,–,0%,–
"Cn1c(=O)c2c(ncn2C)n(C)c1=O [1,3,7-Trimethyl Xanthine (Caffeine), 1,3,7-Trimethyl Xanthine]",0%,–,0%,–
"CC(=O)Nc1c(N)n(C)c(=O)n(C)c1=O [5-Acetamino-6-amino-1,3-dimethyluracil]",0%,–,0%,–
O=c1cc[nH]c(=O)[nH]1 [Uracil],0%,–,0%,–
O=c1[nH]c(=O)c2[nH]c(=O)[nH]c2[nH]1 [Uric acid],0%,–,0%,–
Cn1c(=O)[nH]c(=O)c2[nH]cnc21 [3-Methyl Xanthine],0%,–,0%,–
